Data on 15 compounds can be found in patent publication US20250136578A1 (Kolm Therapeutics Inc., priority 2023, published 2025).

pEC50, pIC50: −log10 of the molar value. Like-named read-outs stand apart in the source and are kept apart here. Bounds are passed on as bounds.

Test [1] has as its system VCaP cells. The test can be described thus: VCaP growth inhibition assay (CTG). The format is cell-based. The conditions noted are these: Homo sapiens, 216 h, 30 pM R1881, 9 days. The gist of the method: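 Growth was measured by CTG luminescence after a 9-day exposure of VCaP cells to compound (final 10 fM–100 nM, fivefold steps) in the presence of 30 pM final R1881, in phenol red-free DMEM/5% CSS. IC50 values were derived by nonlinear 4-parameter regression of RLU against concentration.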

The target of test [2] is AR / CBP ternary complex (Homo sapiens, UniProt P10275+Q92793). The test can be described thus: Ternary complex formation assay (sandwich ELISA, AR capture, CBP antibody detection) in VCaP cell lysates. The format is cell-based. The gist of the method: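 Sandwich ELISA: plates were coated with anti-AR antibody (AR441) and given lysates of VCaP cells treated 1.5 h with bifunctional compound in charcoal-stripped serum. Co-captured CBP or p300 was probed with rabbit mAbs and HRP secondary. Chemifluorescent signal (ex 570/em 585) was read at 0, 5 and 15 min.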
AR / CBP ternary complex, sequence (P10275 whole entry): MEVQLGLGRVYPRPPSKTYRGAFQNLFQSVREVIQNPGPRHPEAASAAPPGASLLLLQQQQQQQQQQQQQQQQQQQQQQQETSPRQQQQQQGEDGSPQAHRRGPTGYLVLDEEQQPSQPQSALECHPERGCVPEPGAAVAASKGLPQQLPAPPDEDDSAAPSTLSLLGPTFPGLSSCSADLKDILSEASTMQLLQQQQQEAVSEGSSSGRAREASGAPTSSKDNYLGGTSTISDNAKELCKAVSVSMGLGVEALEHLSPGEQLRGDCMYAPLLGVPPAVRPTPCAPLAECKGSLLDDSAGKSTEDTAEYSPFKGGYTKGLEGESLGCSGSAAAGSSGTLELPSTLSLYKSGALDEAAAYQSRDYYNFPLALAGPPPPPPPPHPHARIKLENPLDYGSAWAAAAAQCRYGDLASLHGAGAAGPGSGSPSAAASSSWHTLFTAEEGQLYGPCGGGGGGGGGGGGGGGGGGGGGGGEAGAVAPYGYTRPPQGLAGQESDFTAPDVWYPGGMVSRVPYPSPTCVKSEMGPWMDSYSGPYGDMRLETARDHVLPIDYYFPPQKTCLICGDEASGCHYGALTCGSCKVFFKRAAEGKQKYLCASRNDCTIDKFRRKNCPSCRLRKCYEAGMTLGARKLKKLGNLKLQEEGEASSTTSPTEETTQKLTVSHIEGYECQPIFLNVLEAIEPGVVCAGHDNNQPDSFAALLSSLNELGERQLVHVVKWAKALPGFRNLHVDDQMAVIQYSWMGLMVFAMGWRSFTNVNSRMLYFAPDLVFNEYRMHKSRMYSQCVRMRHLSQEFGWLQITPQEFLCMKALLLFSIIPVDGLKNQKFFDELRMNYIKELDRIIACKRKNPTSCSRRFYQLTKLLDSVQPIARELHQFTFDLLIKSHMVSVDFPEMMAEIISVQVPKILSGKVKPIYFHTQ
AR / CBP ternary complex, sequence (Q92793 2-2442): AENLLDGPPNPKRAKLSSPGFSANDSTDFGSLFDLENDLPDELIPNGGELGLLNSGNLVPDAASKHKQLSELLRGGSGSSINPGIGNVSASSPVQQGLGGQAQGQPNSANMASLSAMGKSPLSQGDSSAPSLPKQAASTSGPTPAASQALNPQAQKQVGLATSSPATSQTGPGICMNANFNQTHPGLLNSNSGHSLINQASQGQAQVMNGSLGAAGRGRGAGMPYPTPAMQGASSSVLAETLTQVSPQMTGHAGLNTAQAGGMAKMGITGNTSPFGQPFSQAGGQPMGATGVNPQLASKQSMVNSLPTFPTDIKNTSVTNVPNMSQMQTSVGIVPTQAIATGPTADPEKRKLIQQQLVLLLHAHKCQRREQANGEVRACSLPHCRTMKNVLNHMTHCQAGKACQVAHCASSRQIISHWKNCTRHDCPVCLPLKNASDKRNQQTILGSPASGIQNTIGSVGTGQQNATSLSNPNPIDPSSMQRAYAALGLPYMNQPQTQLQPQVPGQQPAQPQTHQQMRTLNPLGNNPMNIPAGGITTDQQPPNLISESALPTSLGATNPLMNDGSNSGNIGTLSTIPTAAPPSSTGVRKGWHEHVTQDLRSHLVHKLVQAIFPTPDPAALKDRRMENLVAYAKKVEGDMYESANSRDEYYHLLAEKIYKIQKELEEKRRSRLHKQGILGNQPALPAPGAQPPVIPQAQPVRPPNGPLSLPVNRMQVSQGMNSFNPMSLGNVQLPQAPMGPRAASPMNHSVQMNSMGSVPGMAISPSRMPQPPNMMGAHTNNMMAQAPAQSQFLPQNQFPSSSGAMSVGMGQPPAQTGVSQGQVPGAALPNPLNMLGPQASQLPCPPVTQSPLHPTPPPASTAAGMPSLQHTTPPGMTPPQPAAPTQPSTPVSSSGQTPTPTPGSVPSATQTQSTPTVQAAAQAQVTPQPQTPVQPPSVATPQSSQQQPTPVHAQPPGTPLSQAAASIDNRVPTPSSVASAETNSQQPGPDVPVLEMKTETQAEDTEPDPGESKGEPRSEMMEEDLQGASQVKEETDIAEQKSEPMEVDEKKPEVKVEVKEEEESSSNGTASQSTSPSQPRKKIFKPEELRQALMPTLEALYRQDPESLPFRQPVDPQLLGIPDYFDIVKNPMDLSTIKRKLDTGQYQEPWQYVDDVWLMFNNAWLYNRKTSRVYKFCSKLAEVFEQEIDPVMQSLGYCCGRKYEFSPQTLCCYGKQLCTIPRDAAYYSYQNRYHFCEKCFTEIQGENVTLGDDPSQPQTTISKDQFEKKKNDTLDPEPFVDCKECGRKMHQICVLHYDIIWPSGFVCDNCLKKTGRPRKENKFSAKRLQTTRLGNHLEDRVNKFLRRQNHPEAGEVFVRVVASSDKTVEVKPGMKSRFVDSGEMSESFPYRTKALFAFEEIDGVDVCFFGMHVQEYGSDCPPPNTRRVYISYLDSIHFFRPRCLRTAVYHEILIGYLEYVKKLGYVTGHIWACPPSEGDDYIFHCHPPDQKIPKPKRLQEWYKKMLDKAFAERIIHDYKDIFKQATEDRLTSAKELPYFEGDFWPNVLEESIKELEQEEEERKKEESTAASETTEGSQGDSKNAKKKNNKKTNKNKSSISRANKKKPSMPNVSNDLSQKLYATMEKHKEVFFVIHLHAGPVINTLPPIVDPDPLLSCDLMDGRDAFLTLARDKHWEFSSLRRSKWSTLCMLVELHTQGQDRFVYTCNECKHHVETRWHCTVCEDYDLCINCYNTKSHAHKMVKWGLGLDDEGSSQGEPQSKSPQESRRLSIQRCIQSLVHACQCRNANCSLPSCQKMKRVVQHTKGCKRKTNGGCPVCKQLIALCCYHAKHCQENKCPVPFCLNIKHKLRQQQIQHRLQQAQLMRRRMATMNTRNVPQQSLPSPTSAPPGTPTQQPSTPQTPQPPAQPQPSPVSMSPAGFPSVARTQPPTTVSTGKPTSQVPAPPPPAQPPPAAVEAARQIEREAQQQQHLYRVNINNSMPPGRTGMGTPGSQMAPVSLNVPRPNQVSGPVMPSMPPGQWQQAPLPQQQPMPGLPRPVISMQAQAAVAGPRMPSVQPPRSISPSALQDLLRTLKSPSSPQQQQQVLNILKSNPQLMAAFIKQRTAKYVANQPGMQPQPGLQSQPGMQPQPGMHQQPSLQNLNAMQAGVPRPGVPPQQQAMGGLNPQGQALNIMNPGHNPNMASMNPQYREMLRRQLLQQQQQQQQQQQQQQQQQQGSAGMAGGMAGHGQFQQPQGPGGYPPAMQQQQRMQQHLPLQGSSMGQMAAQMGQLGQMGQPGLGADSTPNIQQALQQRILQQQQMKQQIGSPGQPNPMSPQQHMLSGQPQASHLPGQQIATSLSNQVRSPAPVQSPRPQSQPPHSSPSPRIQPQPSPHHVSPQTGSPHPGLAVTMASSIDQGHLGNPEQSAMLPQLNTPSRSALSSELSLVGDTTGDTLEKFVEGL
Background: An ELISA detects its analyte on a solid surface through an enzyme-linked reagent.

[3] abbreviates: treated 1.5 hours, rabbit CBP or p300 antibody detection, average, read-out: Average Ternary Complex.
Setting [4] is: read-out: Average Ternary Complex, treated 1.5 hours, rabbit CBP or p300 antibody detection.

Consider `CC(=O)N1CCc2c(c(N3CCCc4cc(C#N)ccc43)nn2C2CCN(C[C@H]3CCN(c4ccc(C(=O)N[C@H]5CC[C@H](Oc6ccc(C#N)c(Cl)c6)CC5)nn4)C[C@H]3C)CC2)C1` [Compound 103, 6-[4-[[4-[5-acetyl-3-(6-cyano-3,4-dihydro-2H-quinolin-1-yl)-6,7-dihydro-4H-pyrazolo[4,3-c]pyridin-1-yl]-1-piperidyl]methyl]-3-methyl-1-piperidyl]-N-[4-(3-chloro-4-cyano-phenoxy)cyclohexyl] pyridazine-3-carboxamide], for which the negative logarithm of the IC50 (pIC50) in test [1] was 9.00 to 10.00. In addition, in test [2] (setting [3]), the pEC50 was over 9.00.

In test [1], `CC(=O)N1CCc2c(c(N3CCCc4cc(-c5cnn(C)c5)c(C(F)F)cc43)nn2C2CCN(C[C@H]3CCN(c4ccc(C(=O)N[C@H]5CC[C@H](Oc6ccc(C#N)c(Cl)c6)CC5)nn4)C[C@@H]3C)CC2)C1` [Compound 104, 6-[4-[[4-[5-acetyl-3-[7-(difluoromethyl)-6-(1-methylpyrazol-4-yl)-3,4-dihydro-2H-quinolin-1-yl]-6,7-dihydro-4H-pyrazolo[4,3-c]pyridin-1-yl]-1-piperidyl]methyl]-3-methyl-1-piperidyl]-N-[4-(3-chloro-4-cyano-phenoxy)cyclohexyl]pyridazine-3-carboxamide] showed a pIC50 of at least 10.00. The pEC50 in test [2] (setting [3]) was over 9.00.

Regarding `CC(=O)N1CCc2c(c(N3CCCc4cc(C)ncc43)nn2C2CCN(CC3CCN(c4ccc(C(=O)N[C@H]5CC[C@H](Oc6ccc(C#N)c(Cl)c6)CC5)nn4)CC3)CC2)C1` [Compound 107, 6-[4-[[4-[5-acetyl-3-(6-methyl-3,4-dihydro-2H-1,7-naphthyridin-1-yl)-6,7-dihydro-4H-pyrazolo[4,3-c]pyridin-1-yl]-1-piperidyl]methyl]-1-piperidyl]-N-[4-(3-chloro-4-cyano-phenoxy)cyclohexyl]pyridazine-3-carboxamide], the pIC50 in test [1] is at least 10.00. The pEC50 in test [2] (setting [3]) was over 9.00.

For the compound `CC(=O)N1CCc2c(c(N3CCCc4cc(C5CC5)ncc43)nn2C2CCN(CC3CCN(c4ccc(C(=O)N[C@H]5CC[C@H](Oc6ccc(C#N)c(Cl)c6)CC5)nn4)CC3)CC2)C1` [Compound 108, 6-[4-[[4-[5-acetyl-3-(6-cyclopropyl-3,4-dihydro-2H-1,7-naphthyridin-1-yl)-6,7-dihydro-4H-pyrazolo[4,3-c]pyridin-1-yl]-1-piperidyl]methyl]-1-piperidyl]-N-[4-(3-chloro-4-cyano-phenoxy)cyclohexyl]pyridazine-3-carboxamide], the negative logarithm of the IC50 (pIC50) in test [1] was 9.00 to 10.00. Besides, the pEC50 in test [2] (setting [3]) is 8.00 to 9.00.

Take `COc1cc2c(cn1)N(c1nn(C3CCN(CC4CCN(c5ccc(C(=O)N[C@H]6CC[C@H](Oc7ccc(C#N)c(Cl)c7)CC6)nn5)CC4)CC3)c3c1CN(C(C)=O)CC3)CCC2` [Compound 109, 6-[4-[[4-[5-acetyl-3-(6-methoxy-3,4-dihydro-2H-1,7-naphthyridin-1-yl)-6,7-dihydro-4H-pyrazolo[4,3-c]pyridin-1-yl]-1-piperidyl]methyl]-1-piperidyl]-N-[4-(3-chloro-4-cyano-phenoxy)cyclohexyl]pyridazine-3-carboxamide]: in test [1], the negative-log IC50 (pIC50) was 9.00 to 10.00. In addition, the pEC50 in test [2] (setting [3]) is 7.00 to 8.00.

Turning to `CC(=O)N1CCc2c(c(N3CCCc4cc(-c5cnn(C)c5)c(C(F)F)cc43)nn2C2CCC3(CC2)CCN(c2ccc(C(=O)N[C@H]4CC[C@H](Oc5ccc(C#N)c(Cl)c5)CC4)nn2)CC3)C1` [Compound 112, 6-[9-[5-acetyl-3-[7-(difluorodimethyl)-6-(1-methylpyrazol-4-yl)-3,4-dihydro-2H-quinolin-1-yl]-6,7-dihydro-4H-pyrazolo[4,3-c]pyridin-1-yl]-3-azaspiro[5.5]undecan-3-yl]-N-[4-(3-chloro-4-cyano-phenoxy)cyclohexyl]pyridazine-3-carboxamide], in test [1], the negative logarithm of the IC50 (pIC50) is 9.00 to 10.00. Moreover, the pEC50 in test [2] (setting [3]) is over 9.00.

`CC(=O)N1CCc2c(c(N3CCCc4cc(C#N)ccc43)nn2C2CCC3(CC2)CCN(c2ccc(C(=O)N[C@H]4CC[C@H](Oc5ccc(C#N)c(Cl)c5)CC4)nn2)CC3)C1` [Compound 113, 6-[9-[5-acetyl-3-(6-cyano-3,4-dihydro-2H-quinolin-1-yl)-6,7-dihydro-4H-pyrazolo[4,3-c]pyridin-1-yl]-3-azaspiro[5.5]undecan-3-yl]-N-[4-(3-chloro-4-cyano-phenoxy)cyclohexyl]pyridazine-3-carboxamide] showed a pIC50 in test [1] of 9.00 to 10.00. Besides, the pEC50 in test [2] (setting [3]) is over 9.00.

As to `CC(=O)N1CCc2c(c(N3CCCc4cc(-c5cnn(C)c5)c(C(F)F)cc43)nn2C2CCN(CC3C4CC3CN(c3ccc(C(=O)N[C@H]5CC[C@H](Oc6ccc(C#N)c(Cl)c6)CC5)nn3)C4)CC2)C1` (stereo partly drawn) [Compound 118, 6-[6-[[4-[5-acetyl-3-[7-(difluoromethyl)-6-(1-methylpyrazol-4-yl)-3,4-dihydro-2H-quinolin-1-yl]-6,7-dihydro-4H-pyrazolo[4,3-c]pyridin-1-yl]-1-piperidyl]methyl]-3-azabicyclo [3.1.1]heptan-3-yl]-N-[4-(3-chloro-4-cyano-phenoxy)cyclohexyl] pyridazine-3-carboxamide], the negative-log IC50 (pIC50) in test [1] is 9.00 to 10.00. Also, the pEC50 in test [2] (setting [4]) was over 9.00.

For the compound `CC(=O)N1CCc2c(c(-c3cccc4ccncc34)nn2C2CCN(CC3CCN(c4ccc(C(=O)N[C@H]5CC[C@H](Oc6ccc(C#N)c(Cl)c6)CC5)nn4)CC3)CC2)C1` [Compound 120, 6-[4-[[4-[5-acetyl-3-(8-isoquinolyl)-6,7-dihydro-4H-pyrazolo[4,3-c]pyridin-1-yl]-1-piperidyl]methyl]-1-piperidyl]-N-[4-(3-chloro-4-cyano-phenoxy)cyclohexyl]pyridazine-3-carboxamide], in test [1], the pIC50 was 9.00 to 10.00. Also, in test [2] (setting [3]), the pEC50 was over 9.00.

On to `CC(=O)N1CCc2c(c(-c3cccc4cc(C#N)ncc34)nn2C2CCN(CC3CCN(c4ccc(C(=O)N[C@H]5CC[C@H](Oc6ccc(C#N)c(Cl)c6)CC5)nn4)CC3)CC2)C1` [Compound 121, 6-[4-[[4-[5-acetyl-3-(3-cyano-8-isoquinolyl)-6,7-dihydro-4H-pyrazolo[4,3-c]pyridin-1-yl]-1-piperidyl]methyl]-1-piperidyl]-N-[4-(3-chloro-4-cyano-phenoxy)cyclohexyl]pyridazine-3-carboxamide], for which, in test [1], the pIC50 is 9.00 to 10.00. Besides, the pEC50 in test [2] (setting [3]) was over 9.00.

For `CC(=O)N1CCc2c(c(-c3cccc4cc(C)ncc34)nn2C2CCN(CC3CCN(c4ccc(C(=O)N[C@H]5CC[C@H](Oc6ccc(C#N)c(Cl)c6)CC5)nn4)CC3)CC2)C1` [Compound 122, -[4-[[4-[5-acetyl-3-(3-methyl-8-isoquinolyl)-6,7-dihydro-4H-pyrazolo[4,3-c]pyridin-1-yl]-1-piperidyl]methyl]-1-piperidyl]-N-[4-(3-chloro-4-cyano-phenoxy)cyclohexyl]pyridazine-3-carboxamide], the pIC50 in test [1] is 9.00 to 10.00. Moreover, the pEC50 in test [2] (setting [3]) is over 9.00.

Take `CC(=O)N1CCc2c(c(-c3cccc4cc(C5CC5)ncc34)nn2C2CCN(CC3CCN(c4ccc(C(=O)N[C@H]5CC[C@H](Oc6ccc(C#N)c(Cl)c6)CC5)nn4)CC3)CC2)C1` [Compound 123, 6-[4-[[4-[5-acetyl-3-(3-cyclopropyl-8-isoquinolyl)-6,7-dihydro-4H-pyrazolo[4,3-c]pyridin-1-yl]-1-piperidyl]methyl]-1-piperidyl]-N-[4-(3-chloro-4-cyano-phenoxy)cyclohexyl]pyridazine-3-carboxamide]: in test [1], the pIC50 was 9.00 to 10.00. For the same compound, the pEC50 in test [2] (setting [3]) was over 9.00.

The compound `CC(=O)N1CCc2c(c(N3CCCc4cc(-c5cnn(C)c5)c(C(F)F)cc43)nn2C2CCN(CC3CC4CCC(C3)N4c3ccc(C(=O)N[C@H]4CC[C@H](Oc5ccc(C#N)c(Cl)c5)CC4)nn3)CC2)C1` (stereo partly drawn) [Compound 126, 6-[3-[[4-[5-acetyl-3-[7-(difluoromethyl)-6-(1-methylpyrazol-4-yl)-3,4-dihydro-2H-quinolin-1-yl]-6,7-dihydro-4H-pyrazolo[4,3-c]pyridin-1-yl]-1-piperidyl]methyl]-8-azabicyclo[3.2.1]octan-8-yl]-N-[4-(3-chloro-4-cyano-phenoxy)cyclohexyl]pyridazine-3-carboxamide] had a negative-log IC50 (pIC50) in test [1] of at least 10.00. Moreover, in test [2] (setting [4]), the pEC50 was over 9.00.

As to `Cc1noc(C)c1-c1ccc2c(c1)nc(C1CCCC(=O)N1c1ccc(F)c(F)c1)n2C1CCN(CC2CCN(c3ccc(C(=O)N[C@H]4CC[C@H](Oc5ccc(C#N)c(Cl)c5)CC4)nn3)CC2)CC1` (stereo partly drawn) [Compound 127, N-[4-(3-chloro-4-cyano-phenoxy)cyclohexyl]-6-[4-[[4-[2-[1-(3,4-difluorophenyl)-6-oxo-2-piperidyl]-5-(3,5-dimethylisoxazol-4-yl)benzimidazol-1-yl]-1-piperidyl]methyl]-1-piperidyl]pyridazine-3-carboxamide], the pIC50 in test [1] is under 7.00. For the same compound, in test [2] (setting [3]), the pEC50 is under 7.00.

`CC(=O)N1CCc2c(c(N3CCCc4cc(-c5cnn(C)c5)c(C(F)F)cc43)nn2CC2CC3(CCN(c4ccc(C(=O)N[C@H]5CC[C@H](Oc6ccc(C#N)c(Cl)c6)CC5)nn4)CC3)C2)C1` [Compound 130, 6-[2-[[5-acetyl-3-[7-(difluoromethyl)-6-(1-methylpyrazol-4-yl)-3,4-dihydro-2H-quinolin-1-yl]-6,7-dihydro-4H-pyrazolo[4,3-c]pyridin-1-yl]methyl]-7-azaspiro[3.5]nonan-7-yl]-N-[4-(3-chloro-4-cyano-phenoxy)cyclohexyl]pyridazine-3-carboxamide] had a pIC50 in test [1] of 9.00 to 10.00. In addition, the pEC50 in test [2] (setting [3]) is under 7.00.

Broadly, the pIC50 is −log10 of the IC50, conventionally taken in molar units. Lower therefore signals a large IC50.
